SMILES strings stand for the structures.

Common to all, as to type: biochemical
One assay concerns the target T1, 5-lipoxygenase (Rattus norvegicus, UniProt P12527).
T1 construct: 20,000 g supernatant from 7.5 million homogenized RBL-1 cells; endogenous in cells; host or cells: RBL-1 cells, 20,000 g supernatant of homogenate
T1 sequence (P12527 1-673): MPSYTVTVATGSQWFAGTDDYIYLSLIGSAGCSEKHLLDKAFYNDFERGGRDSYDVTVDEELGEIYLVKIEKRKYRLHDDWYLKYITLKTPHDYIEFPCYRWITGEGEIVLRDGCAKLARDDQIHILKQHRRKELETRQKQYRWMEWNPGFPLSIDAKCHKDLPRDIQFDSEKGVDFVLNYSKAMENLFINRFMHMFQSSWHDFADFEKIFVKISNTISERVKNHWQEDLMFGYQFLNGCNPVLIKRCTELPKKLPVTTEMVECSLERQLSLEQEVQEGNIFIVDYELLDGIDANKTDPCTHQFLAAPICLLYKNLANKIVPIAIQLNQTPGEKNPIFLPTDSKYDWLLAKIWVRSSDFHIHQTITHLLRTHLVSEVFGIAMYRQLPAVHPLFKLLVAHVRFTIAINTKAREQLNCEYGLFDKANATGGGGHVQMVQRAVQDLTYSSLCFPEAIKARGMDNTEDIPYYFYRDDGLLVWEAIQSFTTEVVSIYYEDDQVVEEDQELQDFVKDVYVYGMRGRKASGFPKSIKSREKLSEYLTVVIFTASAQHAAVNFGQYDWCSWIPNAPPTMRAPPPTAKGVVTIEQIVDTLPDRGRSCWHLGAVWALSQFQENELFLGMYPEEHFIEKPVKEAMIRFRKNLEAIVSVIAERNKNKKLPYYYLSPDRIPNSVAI
Description: 5-lipoxygenase inhibition, 20,000 g supernatant from homogenized RBL-1 cells, radiolabeled arachidonic acid. Particulars: 5-lipoxygenase, RBL-1 supernatant; 50% intercept from linear regression of % inhibition vs log concentration. How it is done:
(§1) The compounds of this invention are potent inhibitors of 5-, 12-, and 15-lipoxygenases. An assay to determine 5-lipoxygenase activity was performed in incubations containing various concentrations of the test compound and the 20,000 g supernatant from 7.5 million homogenized RBL-1 cells. Reactions were initiated by addition of radiolabeled arachidonic acid and terminated by acidification and ether extraction. Reaction products were separated from nonconverted substrate by thin layer chromatography and measured by liquid scintillation spectroscopy. Inhibition of 5-lipoxygenase activity was calculated as the 50% intercept from linear regression analysis of percentage inhibition versus log concentration plots.

The next assay addresses T2, 12-lipoxygenase (Homo sapiens, UniProt P18054).
T2 construct: 12-lipoxygenase obtained from human platelets; from tissue; host or cells: human platelets
T2 sequence (P18054 1-663): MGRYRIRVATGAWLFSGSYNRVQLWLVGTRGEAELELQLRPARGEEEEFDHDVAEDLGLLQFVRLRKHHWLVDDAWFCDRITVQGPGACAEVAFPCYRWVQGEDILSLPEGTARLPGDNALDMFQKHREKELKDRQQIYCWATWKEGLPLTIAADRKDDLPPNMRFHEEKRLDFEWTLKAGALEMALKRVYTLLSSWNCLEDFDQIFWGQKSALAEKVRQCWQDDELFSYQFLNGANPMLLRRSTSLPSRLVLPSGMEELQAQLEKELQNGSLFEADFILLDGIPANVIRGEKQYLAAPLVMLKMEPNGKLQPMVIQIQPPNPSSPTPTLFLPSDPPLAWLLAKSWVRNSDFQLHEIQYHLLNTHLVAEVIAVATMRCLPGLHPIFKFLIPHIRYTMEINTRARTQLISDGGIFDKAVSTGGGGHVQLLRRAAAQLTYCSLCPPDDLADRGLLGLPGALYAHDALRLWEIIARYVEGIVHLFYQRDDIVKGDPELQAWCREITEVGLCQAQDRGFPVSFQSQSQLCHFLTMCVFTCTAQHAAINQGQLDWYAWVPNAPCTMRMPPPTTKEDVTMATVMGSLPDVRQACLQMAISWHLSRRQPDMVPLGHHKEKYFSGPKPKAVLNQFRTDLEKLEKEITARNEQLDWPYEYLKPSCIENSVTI
Description: 12-lipoxygenase inhibition, enzyme obtained from human platelets. The following applies: read-out: Percent Inhibition, 12-Lipoxygenase. The procedure:
as §1
(§2) Inhibitory activities of the compounds of this invention against 12- and 15-lipoxygenase can be determined in the foregoing assay in which 12-lipoxygenase obtained from human platelets, or 15-lipoxygenase obtained from soybean, is substituted for the […] containing cell supernatant fraction.

The next assay addresses T3, 15-lipoxygenase (Glycine max, UniProt P08170).
T3 construct: 15-lipoxygenase obtained from soybean; from tissue; host or cells: soybean
T3 sequence (P08170 1-839): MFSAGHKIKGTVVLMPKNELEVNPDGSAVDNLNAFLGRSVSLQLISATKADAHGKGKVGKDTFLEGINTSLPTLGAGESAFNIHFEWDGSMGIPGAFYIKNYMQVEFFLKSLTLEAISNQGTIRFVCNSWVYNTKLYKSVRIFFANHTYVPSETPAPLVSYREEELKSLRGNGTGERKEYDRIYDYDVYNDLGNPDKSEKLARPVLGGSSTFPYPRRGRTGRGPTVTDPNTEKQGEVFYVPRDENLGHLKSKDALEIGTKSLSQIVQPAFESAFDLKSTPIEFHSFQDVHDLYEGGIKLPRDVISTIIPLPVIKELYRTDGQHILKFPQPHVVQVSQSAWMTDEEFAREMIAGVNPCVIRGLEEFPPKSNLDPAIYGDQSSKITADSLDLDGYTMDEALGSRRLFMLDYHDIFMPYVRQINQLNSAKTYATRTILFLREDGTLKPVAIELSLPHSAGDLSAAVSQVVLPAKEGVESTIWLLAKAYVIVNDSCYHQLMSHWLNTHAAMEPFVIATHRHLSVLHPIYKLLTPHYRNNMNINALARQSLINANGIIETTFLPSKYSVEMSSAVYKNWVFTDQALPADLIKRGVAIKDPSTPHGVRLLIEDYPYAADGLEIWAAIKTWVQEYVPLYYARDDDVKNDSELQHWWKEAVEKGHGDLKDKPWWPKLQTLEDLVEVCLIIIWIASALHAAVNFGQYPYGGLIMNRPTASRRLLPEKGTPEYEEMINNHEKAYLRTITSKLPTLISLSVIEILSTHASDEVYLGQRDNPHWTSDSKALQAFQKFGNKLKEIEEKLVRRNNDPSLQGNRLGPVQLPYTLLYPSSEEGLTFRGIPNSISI
Description: 15-lipoxygenase inhibition, enzyme obtained from soybean. The following applies: read-out: Percent Inhibition, 15-lipoxygenase. How it is done: as §1, §2

Compound `COc1ccc2ccn(O)c(=O)c2c1` [Example 34] displayed an IC50 on 5-lipoxygenase of 2500 nM. Moreover, the figures for the inhibition at 10 µM at 12-lipoxygenase (10 uM) and on 15-lipoxygenase (10 uM) were 90% and 20%, respectively. The inhibition at 100 µM at 12-lipoxygenase (100 uM) amounted to 98%; on 15-lipoxygenase (100 uM), 45%.

For orientation: IC50 means the concentration needed to halve the response being measured. For orientation: inhibition means the share of the control response that was lost under treatment.

For the origin of these results see US4761403A, “Lipoxygenase inhibiting compounds” (Abbott Laboratories, priority 1986, dated 1988).
